Assay [1] has as its target ROCK. The assay is described as follows: Kinase IC50 assay. It is filed as biochemical.
Assay [2] deals with PKCι (Homo sapiens, UniProt P41743). The assay is described as follows: Kinase IC50 assay. It is filed as biochemical.
Assay [3] addresses T1, EphA3(h) (Homo sapiens, UniProt P29320).
T1 construct: purchased Millipore KinaseProfiler
T1 sequence (P29320 21-983): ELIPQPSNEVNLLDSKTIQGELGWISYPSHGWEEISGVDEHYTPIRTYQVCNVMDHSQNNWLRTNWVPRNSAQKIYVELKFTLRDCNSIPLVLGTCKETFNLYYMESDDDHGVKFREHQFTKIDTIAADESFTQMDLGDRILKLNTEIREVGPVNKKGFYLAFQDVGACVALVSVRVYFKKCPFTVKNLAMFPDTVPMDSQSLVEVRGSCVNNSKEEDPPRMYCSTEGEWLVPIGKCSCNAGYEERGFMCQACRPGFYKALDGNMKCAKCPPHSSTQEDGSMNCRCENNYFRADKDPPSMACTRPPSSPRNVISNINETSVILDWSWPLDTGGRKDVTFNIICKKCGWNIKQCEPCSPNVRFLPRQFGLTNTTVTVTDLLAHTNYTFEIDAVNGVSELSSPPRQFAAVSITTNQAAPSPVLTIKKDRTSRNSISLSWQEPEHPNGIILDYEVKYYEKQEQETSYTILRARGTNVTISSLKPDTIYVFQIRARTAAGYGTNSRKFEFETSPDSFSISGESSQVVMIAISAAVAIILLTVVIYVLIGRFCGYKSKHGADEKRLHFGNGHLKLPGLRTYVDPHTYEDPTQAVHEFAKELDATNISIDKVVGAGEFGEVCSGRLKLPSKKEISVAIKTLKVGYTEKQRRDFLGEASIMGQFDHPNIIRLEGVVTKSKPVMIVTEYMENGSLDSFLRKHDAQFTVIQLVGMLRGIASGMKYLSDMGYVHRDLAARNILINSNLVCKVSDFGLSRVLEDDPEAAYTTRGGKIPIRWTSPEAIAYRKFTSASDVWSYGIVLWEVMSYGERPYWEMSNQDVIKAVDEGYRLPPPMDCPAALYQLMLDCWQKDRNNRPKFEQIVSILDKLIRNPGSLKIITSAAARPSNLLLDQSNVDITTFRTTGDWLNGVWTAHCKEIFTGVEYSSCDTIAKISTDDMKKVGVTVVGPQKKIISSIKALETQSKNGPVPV
The assay is described as follows: Kinase panel. It is filed as biochemical.

For assay [4], the target named is T2, cKit(h) (Homo sapiens, UniProt P10721).
T2 construct: purchased Millipore KinaseProfiler
T2 sequence (P10721 26-976): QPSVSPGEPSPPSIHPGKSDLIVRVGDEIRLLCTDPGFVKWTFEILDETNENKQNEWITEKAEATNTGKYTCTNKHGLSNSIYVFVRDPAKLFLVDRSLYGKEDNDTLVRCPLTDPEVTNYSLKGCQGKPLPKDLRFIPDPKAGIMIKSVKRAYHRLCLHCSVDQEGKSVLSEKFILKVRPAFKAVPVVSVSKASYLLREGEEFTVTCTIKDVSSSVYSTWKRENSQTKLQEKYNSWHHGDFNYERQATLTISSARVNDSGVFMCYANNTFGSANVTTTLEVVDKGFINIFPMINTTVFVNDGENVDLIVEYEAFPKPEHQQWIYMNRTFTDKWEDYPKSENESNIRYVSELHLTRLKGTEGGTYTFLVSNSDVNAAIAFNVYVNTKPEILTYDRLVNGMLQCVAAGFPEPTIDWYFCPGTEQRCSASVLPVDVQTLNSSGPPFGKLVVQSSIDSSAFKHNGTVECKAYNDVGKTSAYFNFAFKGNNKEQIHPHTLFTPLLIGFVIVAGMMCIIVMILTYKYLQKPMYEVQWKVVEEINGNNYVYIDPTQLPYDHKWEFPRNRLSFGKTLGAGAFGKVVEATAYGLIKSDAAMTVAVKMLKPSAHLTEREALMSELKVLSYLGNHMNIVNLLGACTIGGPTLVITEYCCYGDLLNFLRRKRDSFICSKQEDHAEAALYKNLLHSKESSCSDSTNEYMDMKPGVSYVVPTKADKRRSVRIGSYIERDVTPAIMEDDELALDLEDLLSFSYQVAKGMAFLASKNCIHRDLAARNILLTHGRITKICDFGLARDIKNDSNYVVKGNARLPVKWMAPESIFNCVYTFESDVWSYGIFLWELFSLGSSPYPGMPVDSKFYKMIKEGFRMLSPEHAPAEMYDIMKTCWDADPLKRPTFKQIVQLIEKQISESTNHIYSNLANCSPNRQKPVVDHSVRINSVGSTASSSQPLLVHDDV
Briefly: Kinase panel. It is filed as biochemical.

In assay [5] the target is T3, PKCβII(h) (Homo sapiens, UniProt P05771).
T3 construct: purchased Millipore KinaseProfiler
T3 sequence (P05771 1-673 isoform P05771-2): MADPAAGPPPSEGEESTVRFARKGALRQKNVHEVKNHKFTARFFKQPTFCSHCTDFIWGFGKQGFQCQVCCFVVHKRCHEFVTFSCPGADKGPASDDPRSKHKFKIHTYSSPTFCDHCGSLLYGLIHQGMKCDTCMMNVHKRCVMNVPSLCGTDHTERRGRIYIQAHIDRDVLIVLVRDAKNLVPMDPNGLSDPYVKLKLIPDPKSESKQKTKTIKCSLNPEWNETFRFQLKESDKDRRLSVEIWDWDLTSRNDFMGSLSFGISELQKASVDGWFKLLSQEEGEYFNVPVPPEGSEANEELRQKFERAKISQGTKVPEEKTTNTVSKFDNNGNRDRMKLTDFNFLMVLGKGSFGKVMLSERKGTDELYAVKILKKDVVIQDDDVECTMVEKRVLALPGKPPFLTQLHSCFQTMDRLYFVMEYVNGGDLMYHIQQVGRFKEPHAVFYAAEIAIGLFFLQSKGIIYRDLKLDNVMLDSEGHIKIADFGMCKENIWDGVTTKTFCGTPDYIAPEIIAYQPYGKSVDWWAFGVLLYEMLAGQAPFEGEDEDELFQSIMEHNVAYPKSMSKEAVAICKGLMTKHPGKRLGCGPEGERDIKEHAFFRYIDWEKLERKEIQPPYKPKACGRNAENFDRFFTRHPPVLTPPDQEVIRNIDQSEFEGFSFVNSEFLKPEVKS
The assay is described as follows: Kinase panel. It is filed as biochemical.

Assay [6] addresses T4, FGFR3(h) (Homo sapiens, UniProt P22607).
T4 construct: purchased Millipore KinaseProfiler
The assay is described as follows: Kinase panel. It is filed as biochemical.

The target of assay [7] is T5, TBK1(h) (Homo sapiens, UniProt Q9UHD2).
T5 construct: purchased Millipore KinaseProfiler
T5 sequence (Q9UHD2 1-729): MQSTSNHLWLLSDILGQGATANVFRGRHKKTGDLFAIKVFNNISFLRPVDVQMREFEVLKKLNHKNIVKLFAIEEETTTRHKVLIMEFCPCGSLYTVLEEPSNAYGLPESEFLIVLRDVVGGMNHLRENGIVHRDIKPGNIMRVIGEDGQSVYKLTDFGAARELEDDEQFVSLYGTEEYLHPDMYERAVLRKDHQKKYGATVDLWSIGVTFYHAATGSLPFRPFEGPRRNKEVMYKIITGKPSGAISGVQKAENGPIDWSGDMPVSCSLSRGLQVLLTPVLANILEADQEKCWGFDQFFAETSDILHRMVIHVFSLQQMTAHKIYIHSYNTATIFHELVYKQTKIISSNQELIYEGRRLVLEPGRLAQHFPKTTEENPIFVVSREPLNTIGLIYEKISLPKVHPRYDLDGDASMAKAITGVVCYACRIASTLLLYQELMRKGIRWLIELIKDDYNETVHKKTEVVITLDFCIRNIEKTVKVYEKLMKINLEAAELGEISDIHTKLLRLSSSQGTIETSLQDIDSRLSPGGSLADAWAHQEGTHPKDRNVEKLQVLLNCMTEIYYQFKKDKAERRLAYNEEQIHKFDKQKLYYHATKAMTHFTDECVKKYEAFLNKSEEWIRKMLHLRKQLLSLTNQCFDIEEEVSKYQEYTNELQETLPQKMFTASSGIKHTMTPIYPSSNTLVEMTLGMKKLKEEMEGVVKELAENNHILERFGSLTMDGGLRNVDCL
Briefly: Kinase panel. It is filed as biochemical.

Assay [8] deals with T6, Pim-3(h) (Homo sapiens, UniProt Q86V86).
T6 construct: purchased Millipore KinaseProfiler
Briefly: Kinase panel. Type of assay: biochemical.

The test system of assay [9] is CK1(y). The assay is described as follows: Kinase panel. It is filed as biochemical, yeast.
In assay [10] the target is T7, PKCε(h) (Homo sapiens, UniProt Q02156).
T7 construct: purchased Millipore KinaseProfiler
T7 sequence (Q02156 1-737): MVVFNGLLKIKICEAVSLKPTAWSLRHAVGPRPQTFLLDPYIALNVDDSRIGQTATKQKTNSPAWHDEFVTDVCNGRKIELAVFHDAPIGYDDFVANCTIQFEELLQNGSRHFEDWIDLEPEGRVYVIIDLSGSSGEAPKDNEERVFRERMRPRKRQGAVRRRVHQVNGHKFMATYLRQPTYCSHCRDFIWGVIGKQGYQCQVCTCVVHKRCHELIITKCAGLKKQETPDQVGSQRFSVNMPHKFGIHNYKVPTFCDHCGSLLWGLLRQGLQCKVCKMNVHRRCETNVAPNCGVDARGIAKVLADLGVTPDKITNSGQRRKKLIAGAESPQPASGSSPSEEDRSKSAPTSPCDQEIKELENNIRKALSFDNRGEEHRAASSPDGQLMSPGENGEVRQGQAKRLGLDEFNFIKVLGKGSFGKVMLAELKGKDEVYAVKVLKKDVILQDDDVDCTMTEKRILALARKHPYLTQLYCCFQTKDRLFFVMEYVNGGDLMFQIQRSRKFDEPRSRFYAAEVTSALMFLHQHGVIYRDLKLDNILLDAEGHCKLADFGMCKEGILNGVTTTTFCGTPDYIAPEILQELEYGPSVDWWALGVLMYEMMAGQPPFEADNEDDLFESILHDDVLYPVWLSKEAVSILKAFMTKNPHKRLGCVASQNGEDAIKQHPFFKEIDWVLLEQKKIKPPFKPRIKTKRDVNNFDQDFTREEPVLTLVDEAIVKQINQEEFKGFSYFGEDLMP
The assay is described as follows: Kinase panel. Type of assay: biochemical.

Molecules are shown by their SMILES. Where two headings read alike, the source gives them in different places. Where only a bound is given, the exact number is not on record here.

This is an account of results in paper PMC4076210, “Discovery of Novel AKT Inhibitors with Enhanced Anti-Tumor Effects in Combination with the MEK Inhibitor” (PLoS ONE, 2014).

T4 sequence (P22607 23-806): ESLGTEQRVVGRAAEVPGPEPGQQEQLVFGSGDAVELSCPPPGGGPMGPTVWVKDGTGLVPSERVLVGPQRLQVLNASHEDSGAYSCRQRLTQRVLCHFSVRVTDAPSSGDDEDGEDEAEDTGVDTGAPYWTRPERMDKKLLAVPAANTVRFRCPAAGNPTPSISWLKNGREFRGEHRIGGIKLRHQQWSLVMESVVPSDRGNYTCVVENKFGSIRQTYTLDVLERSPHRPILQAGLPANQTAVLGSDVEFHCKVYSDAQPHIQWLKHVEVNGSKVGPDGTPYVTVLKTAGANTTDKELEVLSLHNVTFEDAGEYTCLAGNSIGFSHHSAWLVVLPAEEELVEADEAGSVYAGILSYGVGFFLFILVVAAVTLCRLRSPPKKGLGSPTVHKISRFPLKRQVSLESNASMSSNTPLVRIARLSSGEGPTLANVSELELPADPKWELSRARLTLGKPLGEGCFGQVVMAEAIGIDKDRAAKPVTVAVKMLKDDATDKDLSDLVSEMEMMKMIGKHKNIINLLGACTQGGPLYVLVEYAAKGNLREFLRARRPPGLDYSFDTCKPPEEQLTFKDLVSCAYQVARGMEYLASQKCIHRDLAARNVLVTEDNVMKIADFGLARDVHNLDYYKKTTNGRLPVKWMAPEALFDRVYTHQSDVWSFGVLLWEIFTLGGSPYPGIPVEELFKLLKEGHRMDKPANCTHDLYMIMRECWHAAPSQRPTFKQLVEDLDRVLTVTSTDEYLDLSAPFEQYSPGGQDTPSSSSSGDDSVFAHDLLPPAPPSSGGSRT
PKCι, sequence (P41743 whole entry): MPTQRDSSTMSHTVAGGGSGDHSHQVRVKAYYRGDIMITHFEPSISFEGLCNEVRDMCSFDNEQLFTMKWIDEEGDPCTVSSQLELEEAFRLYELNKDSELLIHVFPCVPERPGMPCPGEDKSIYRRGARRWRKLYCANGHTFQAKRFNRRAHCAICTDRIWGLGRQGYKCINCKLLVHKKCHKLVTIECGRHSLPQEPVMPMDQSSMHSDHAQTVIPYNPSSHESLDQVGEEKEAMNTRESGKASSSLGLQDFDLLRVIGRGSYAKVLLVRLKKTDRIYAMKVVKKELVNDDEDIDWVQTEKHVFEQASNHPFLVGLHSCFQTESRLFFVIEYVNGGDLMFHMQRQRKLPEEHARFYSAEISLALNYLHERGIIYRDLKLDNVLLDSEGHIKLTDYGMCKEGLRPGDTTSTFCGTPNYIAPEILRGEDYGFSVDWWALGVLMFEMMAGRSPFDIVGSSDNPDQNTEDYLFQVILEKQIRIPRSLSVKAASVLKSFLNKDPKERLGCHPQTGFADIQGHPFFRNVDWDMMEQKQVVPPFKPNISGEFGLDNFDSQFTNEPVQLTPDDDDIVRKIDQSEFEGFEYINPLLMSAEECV

The IC50 is the concentration that inhibits the measured activity by half. Lower therefore signals inhibition by little substance. Broadly, the inhibition is the change of the read-out against control, counted positive when it falls. For orientation: % Inhibition means the relative decrease from the control value, in per cent. The low end stands for little suppression, the high end for strong suppression. In the case of `Cn1ncc(Cl)c1-c1cc(C(=O)N[C@H](CN)Cc2ccc(F)c(F)c2)oc1Cl` [GSK2141795], the IC50 is 126 nM in assay [1] and > 1000 nM in assay [2]. Further, the inhibition at 0.5 µM is -7% in assay [3] (0.5 µM, read-out: % Inhibition); 0% in assay [4] (0.5 µM, read-out: % Inhibition); 44% in assay [5] (0.5 µM, read-out: % Inhibition); -14% in assay [6] (0.5 µM, read-out: % Inhibition); 1% in assay [7] (0.5 µM, read-out: % Inhibition); -10% in assay [8] (0.5 µM, read-out: % Inhibition). In [10] (0.5 µM, read-out: % Inhibition), the inhibition at 0.5 µM was determined as 32%. Also, the inhibition at 10 µM is 21% in assay [3] (10 µM, read-out: % Inhibition); -1% in [4] (10 µM, read-out: % Inhibition); 91% in assay [5] (10 µM, read-out: % Inhibition); 2% in assay [6] (10 µM, read-out: % Inhibition); 4% in assay [7] (10 µM, read-out: % Inhibition); -4% in assay [8] (10 µM, read-out: % Inhibition). Also, in [10] (10 µM, read-out: % Inhibition), the inhibition at 10 µM was found to be 81%. Moreover, the “% Inhibition” value in [9] (0.5 µM) stood at 35%; in assay [9] (10 µM) it was 93%.
Consider `Cn1ncc(Cl)c1-c1cc(C(=O)N[C@H](CN)Cc2cccc(F)c2)sc1Cl` [GSK2110183], for which the values for the IC50 in assay [1] and in [2] were 100 nM and > 1000 nM, respectively. Besides, the inhibition at 0.5 µM in assay [3] is 1%; in assay [4], 13%; in assay [5], 2%; in [6], -6%; in assay [7], 1%; in assay [8], -25%. For the same molecule, the inhibition at 0.5 µM in assay [10] was determined as 19%. In addition, the inhibition at 10 µM in assay [3] was 11%; in assay [4] it was 8%; in assay [5], 75%; in assay [6], 9%; in assay [7] it was 2%; in [8], -13%. In addition, the inhibition at 10 µM in assay [10] amounted to 80%. Besides, the results for the “% Inhibition” value in [9] (0.5 µM) and in [9] (10 µM) were 3% and 54%, respectively.
